{"source": "patent US20050282937A1", "about": "“Electrochemical compatibilizer and hydrophobic wetting agent for fiber reinforced vinyl esters and related thermosets” (priority 2004, published 2005)", "origin": "cited, not measured here", "key": {"Actinomyces israeli": {"system": "Actinomyces israeli", "conditions": "Oral Bacteria, laboratory strain NCTC8047"}, "Actinomyces naeslundi": {"system": "Actinomyces naeslundi", "conditions": "Oral Bacteria"}, "[1]": {"system": "Actinomyces odontolyticus"}, "Streptococcus mitor": {"system": "Streptococcus mitor", "conditions": "Oral Bacteria"}, "Streptococcus mutans [2]": {"system": "Streptococcus mutans", "conditions": "Oral Bacteria, laboratory strain 6715"}, "Steptococcus sobrinus": {"system": "Steptococcus sobrinus", "conditions": "Oral Bacteria, laboratory strain OMZ176"}, "Steptococcus sanguis": {"system": "Steptococcus sanguis", "conditions": "Oral Bacteria, laboratory strain 34"}, "Porphyromonas gingivalis": {"system": "Porphyromonas gingivalis", "conditions": "Oral Bacteria, laboratory strain OMZ309"}, "[3]": {"system": "Actinobacillus actinomycesemcomitans", "conditions": "Oral Bacteria, laboratory strain Y4"}, "Bacteroides gingivalis": {"system": "Bacteroides gingivalis", "conditions": "Oral Bacteria, laboratory strain 381"}, "Bacteroides intermedius": {"system": "Bacteroides intermedius", "conditions": "Oral Bacteria"}, "C. ochracea": {"system": "C. ochracea", "conditions": "Oral Bacteria, laboratory strain NCTC11654"}, "[4]": {"system": "Peptococcus asacchrolyticus", "conditions": "Oral Bacteria, laboratory strain NCTC"}, "Lactobacilli": {"system": "Lactobacilli", "conditions": "Oral Bacteria, strain not given"}, "[5]": {"system": "Actinomyces actinomycetemcomitans", "conditions": "Fresh isolate from human plaque, Colgate-Palmolive data"}, "Capnocytophaga spp": {"system": "Capnocytophaga spp", "conditions": "Fresh isolate from human plaque, Colgate-Palmolive data"}, "P. anaerobius": {"system": "P. anaerobius", "conditions": "Fresh isolate from human plaque, Colgate-Palmolive data"}, "[6]": {"system": "Peptostreptococcus micros", "conditions": "Fresh isolate from human plaque, Colgate-Palmolive data, strain 1422"}, "P. acnes": {"system": "P. acnes", "conditions": "Fresh isolate from human plaque, Colgate-Palmolive data, strain 1305"}, "S. milleri": {"system": "S. milleri", "conditions": "Fresh isolate from human plaque, Colgate-Palmolive data"}, "S. mitior": {"system": "S. mitior", "conditions": "Fresh isolate from human plaque, Colgate-Palmolive data"}, "W. recta": {"system": "W. recta", "conditions": "Fresh isolate from human plaque, Colgate-Palmolive data, strain not given"}, "Staphlococcus aureus": {"system": "Staphlococcus aureus", "conditions": "Bacteria associated with polymeric medical devices"}, "[7]": {"system": "Staphlococcus epidermidis", "conditions": "Bacteria associated with polymeric medical devices, strain ATCC12228"}, "Staphlococcus hyicus": {"system": "Staphlococcus hyicus", "conditions": "Bacteria associated with polymeric medical devices, strain ATCC27844"}, "Staphlococcus hominus": {"system": "Staphlococcus hominus", "conditions": "Bacteria associated with polymeric medical devices, strain ATCC27844"}, "[8]": {"system": "Staphlococcus saprohyticus", "conditions": "Bacteria associated with polymeric medical devices, strain NCTC7292"}, "Escherichia coli [9]": {"system": "Escherichia coli", "conditions": "Bacteria associated with polymeric medical devices"}, "[10]": {"system": "Corynebacterium (Propionibacterium) acnes", "conditions": "Bacteria associated with polymeric medical devices, strain ATCC6919"}, "Pseudomonas aeruginosa": {"system": "Pseudomonas aeruginosa", "conditions": "Bacteria associated with polymeric medical devices"}, "Listeria monocytogenes": {"system": "Listeria monocytogenes", "conditions": "Bacteria associated with polymeric medical devices, strain ATCC15313"}, "Salmonella enteritidis": {"system": "Salmonella enteritidis", "conditions": "Bacteria associated with polymeric medical devices, strain A"}, "Candida albicans": {"system": "Candida albicans", "conditions": "Yeast"}, "[11]": {"conditions": "over a 24-hour period, thermoset dental compound containing 1.0 wt % additive"}, "Laboratory rats": {"system": "Laboratory rats", "conditions": "ingestion"}, "Streptococcus mutans [12]": {"system": "Streptococcus mutans", "conditions": "dental composite, 1.0 wt % concentration, twenty four-hour period"}, "Staphylococcus aureus": {"system": "Staphylococcus aureus", "conditions": "catheters of ethylvinyl acetate and polypropylene, up to 2.0 wt %, rabbits"}, "[13]": {"system": "Staphylococcus epidermidis", "conditions": "catheters of ethylvinyl acetate and polypropylene, up to 2.0 wt %, rabbits"}, "Escherichia coli [14]": {"system": "Escherichia coli", "conditions": "catheters of ethylvinyl acetate and polypropylene, up to 2.0 wt %, rabbits"}, "[15]": {"conditions": "catheters of ethylvinyl acetate and polypropylene, up to 2.0 wt %"}}, "note": "Where two headings read alike, the source gives them in different places."}
{"smiles": "Oc1cc(Cl)ccc1Oc1ccc(Cl)cc1Cl", "note": "[Triclosan]", "values": [{"measurement": "Minimum inhibitory Triclosan concentration", "setting": "Actinomyces viscosus; Fresh isolate from human plaque, Colgate-Palmolive data, strain 1218", "result": 0.8, "unit": "µg/mL"}, {"measurement": "Minimum inhibitory Triclosan concentration", "setting": "Actinomyces viscosus; Oral Bacteria, laboratory strain NCTC10951", "result": 0.8, "unit": "µg/mL"}, {"measurement": "Minimum inhibitory Triclosan concentration", "setting": "Actinomyces viscosus; Oral Bacteria, laboratory strain T14V", "result": 5.0, "unit": "µg/mL"}, {"measurement": "Minimum inhibitory Triclosan concentration", "setting": "Actinomyces israeli", "result": 1.0, "unit": "µg/mL"}, {"measurement": "Minimum inhibitory Triclosan concentration", "setting": "Actinomyces naeslundi; laboratory strain 12104", "result": 1.0, "unit": "µg/mL"}, {"measurement": "Minimum inhibitory Triclosan concentration", "setting": "Actinomyces naeslundi; laboratory strain A", "result": 1.0, "unit": "µg/mL"}, {"measurement": "Minimum inhibitory Triclosan concentration", "setting": "[1]; Fresh isolate from human plaque, Colgate-Palmolive data, strain 1041", "result": 0.8, "unit": "µg/mL"}, {"measurement": "Minimum inhibitory Triclosan concentration", "setting": "[1]; Fresh isolate from human plaque, Colgate-Palmolive data, strain 1431", "result": 0.8, "unit": "µg/mL"}, {"measurement": "Minimum inhibitory Triclosan concentration", "setting": "[1]; Oral Bacteria, laboratory strain NCTC9935", "result": 0.8, "unit": "µg/mL"}, {"measurement": "Minimum inhibitory Triclosan concentration", "setting": "Streptococcus mitor; laboratory strain NCTC7864", "result": 0.8, "unit": "µg/mL"}, {"measurement": "Minimum inhibitory Triclosan concentration", "setting": "Streptococcus mitor; laboratory strain NCTC10712", "result": 1.1, "unit": "µg/mL"}, {"measurement": "Minimum inhibitory Triclosan concentration", "setting": "Streptococcus mutans [2]", "result": 5.0, "unit": "µg/mL"}, {"measurement": "Minimum inhibitory Triclosan concentration", "setting": "Steptococcus sobrinus", "result": 11.0, "unit": "µg/mL"}, {"measurement": "Minimum inhibitory Triclosan concentration", "setting": "Steptococcus sanguis", "result": 2.0, "unit": "µg/mL"}, {"measurement": "Minimum inhibitory Triclosan concentration", "setting": "Porphyromonas gingivalis", "result": 2.0, "unit": "µg/mL"}, {"measurement": "Minimum inhibitory Triclosan concentration", "setting": "[3]", "result": 5.0, "unit": "µg/mL"}, {"measurement": "Minimum inhibitory Triclosan concentration", "setting": "Bacteroides gingivalis", "result": 2.5, "unit": "µg/mL"}, {"measurement": "Minimum inhibitory Triclosan concentration", "setting": "Bacteroides intermedius; laboratory strain 581", "result": 2.5, "unit": "µg/mL"}, {"measurement": "Minimum inhibitory Triclosan concentration", "setting": "Bacteroides intermedius; laboratory strain NCTC9336", "result": 0.4, "unit": "µg/mL"}, {"measurement": "Minimum inhibitory Triclosan concentration", "setting": "Fusobacterium nucleatum; Fresh isolate from human plaque, Colgate-Palmolive data, strain 1446", "result": 0.8, "unit": "µg/mL"}, {"measurement": "Minimum inhibitory Triclosan concentration", "setting": "Fusobacterium nucleatum; Oral Bacteria, laboratory strain NCTC10562", "result": 1.2, "unit": "µg/mL"}, {"measurement": "Minimum inhibitory Triclosan concentration", "setting": "Veillonella parvula; Fresh isolate from human plaque, Colgate-Palmolive data, strain 1167", "result": 6.2, "unit": "µg/mL"}, {"measurement": "Minimum inhibitory Triclosan concentration", "setting": "Veillonella parvula; Fresh isolate from human plaque, Colgate-Palmolive data, strain 1459", "result": 2.3, "unit": "µg/mL"}, {"measurement": "Minimum inhibitory Triclosan concentration", "setting": "Veillonella parvula; Oral Bacteria, laboratory strain NCTC", "result": 5.4, "unit": "µg/mL"}, {"measurement": "Minimum inhibitory Triclosan concentration", "setting": "C. ochracea", "result": "<0.4", "unit": "µg/mL"}, {"measurement": "Minimum inhibitory Triclosan concentration", "setting": "[4]", "result": "<0.6", "unit": "µg/mL"}, {"measurement": "Minimum inhibitory Triclosan concentration", "setting": "Lactobacilli", "result": 33.0, "unit": "µg/mL"}, {"measurement": "Minimum inhibitory Triclosan concentration", "setting": "[5]; strain 1426", "result": "<0.3", "unit": "µg/mL"}, {"measurement": "Minimum inhibitory Triclosan concentration", "setting": "[5]; strain 1483", "result": "<0.3", "unit": "µg/mL"}, {"measurement": "Minimum inhibitory Triclosan concentration", "setting": "Capnocytophaga spp; strain 287", "result": 0.8, "unit": "µg/mL"}, {"measurement": "Minimum inhibitory Triclosan concentration", "setting": "Capnocytophaga spp; strain 290", "result": 2.3, "unit": "µg/mL"}, {"measurement": "Minimum inhibitory Triclosan concentration", "setting": "Capnocytophaga spp; strain 310", "result": 0.8, "unit": "µg/mL"}, {"measurement": "Minimum inhibitory Triclosan concentration", "setting": "P. anaerobius; strain 580", "result": 0.6, "unit": "µg/mL"}, {"measurement": "Minimum inhibitory Triclosan concentration", "setting": "P. anaerobius; strain 1198", "result": 2.3, "unit": "µg/mL"}, {"measurement": "Minimum inhibitory Triclosan concentration", "setting": "[6]", "result": 3.1, "unit": "µg/mL"}, {"measurement": "Minimum inhibitory Triclosan concentration", "setting": "P. acnes", "result": 2.3, "unit": "µg/mL"}, {"measurement": "Minimum inhibitory Triclosan concentration", "setting": "S. milleri; strain 1339", "result": 2.3, "unit": "µg/mL"}, {"measurement": "Minimum inhibitory Triclosan concentration", "setting": "S. milleri; strain 1391", "result": 2.3, "unit": "µg/mL"}, {"measurement": "Minimum inhibitory Triclosan concentration", "setting": "S. mitior; strain 1384", "result": 2.3, "unit": "µg/mL"}, {"measurement": "Minimum inhibitory Triclosan concentration", "setting": "S. mitior; strain 1387", "result": 2.3, "unit": "µg/mL"}, {"measurement": "Minimum inhibitory Triclosan concentration", "setting": "W. recta", "result": 0.8, "unit": "µg/mL"}, {"measurement": "Minimum inhibitory Triclosan concentration", "setting": "Staphlococcus aureus; strain ATCC9144", "result": 0.05, "unit": "µg/mL"}, {"measurement": "Minimum inhibitory Triclosan concentration", "setting": "Staphlococcus aureus; strain ATCC29213", "result": "<0.125", "unit": "µg/mL"}, {"measurement": "Minimum inhibitory Triclosan concentration", "setting": "Staphlococcus aureus; strain NCTC11150", "result": 0.02, "unit": "µg/mL"}, {"measurement": "Minimum inhibitory Triclosan concentration", "setting": "Staphlococcus aureus; strain NCTC12232", "result": 0.01, "unit": "µg/mL"}, {"measurement": "Minimum inhibitory Triclosan concentration", "setting": "[7]", "result": "<0.125", "unit": "µg/mL"}, {"measurement": "Minimum inhibitory Triclosan concentration", "setting": "Staphlococcus hyicus", "result": 0.03, "unit": "µg/mL"}, {"measurement": "Minimum inhibitory Triclosan concentration", "setting": "Staphlococcus hominus", "result": 1.0, "unit": "µg/mL"}, {"measurement": "Minimum inhibitory Triclosan concentration", "setting": "[8]", "result": 0.1, "unit": "µg/mL"}, {"measurement": "Minimum inhibitory Triclosan concentration", "setting": "Escherichia coli [9]; strain ATCC9661", "result": 0.3, "unit": "µg/mL"}, {"measurement": "Minimum inhibitory Triclosan concentration", "setting": "Escherichia coli [9]; strain ATCC43888", "result": 0.1, "unit": "µg/mL"}, {"measurement": "Minimum inhibitory Triclosan concentration", "setting": "Escherichia coli [9]; strain NCTC8196", "result": 0.02, "unit": "µg/mL"}, {"measurement": "Minimum inhibitory Triclosan concentration", "setting": "Escherichia coli [9]; strain NCTC11186", "result": 0.5, "unit": "µg/mL"}, {"measurement": "Minimum inhibitory Triclosan concentration", "setting": "[10]", "result": 3.0, "unit": "µg/mL"}, {"measurement": "Minimum inhibitory Triclosan concentration", "setting": "Pseudomonas aeruginosa; strain ATCC12055", "result": ">1000", "unit": "µg/mL"}, {"measurement": "Minimum inhibitory Triclosan concentration", "setting": "Pseudomonas aeruginosa; strain NCTC8060", "result": ">1000", "unit": "µg/mL"}, {"measurement": "Minimum inhibitory Triclosan concentration", "setting": "Listeria monocytogenes", "result": 1.0, "unit": "µg/mL"}, {"measurement": "Minimum inhibitory Triclosan concentration", "setting": "Salmonella enteritidis", "result": 0.1, "unit": "µg/mL"}, {"measurement": "Minimum inhibitory Triclosan concentration", "setting": "Candida albicans; strain A", "result": 10.0, "unit": "µg/mL"}, {"measurement": "Minimum inhibitory Triclosan concentration", "setting": "Candida albicans; strain ATCC10259", "result": 3.0, "unit": "µg/mL"}, {"measurement": "solubility (sparingly soluble)", "setting": "at 20 C°", "result": 0.001, "unit": "grams per liter"}, {"measurement": "Triclosan water solubility", "setting": "at 37 C. °", "result": "Triclosan water solubility approximately 30 ug/ml at 37 C. °"}, {"measurement": "water solubility", "setting": "at 50 C°", "result": 40, "unit": "µg/mL"}, {"measurement": "Triclosan release in water", "setting": "[11]", "result": 0.02, "unit": "ppm"}, {"measurement": "amount ingested without ill effect", "setting": "Laboratory rats", "result": "greater than 5000 mg/Kg"}, {"measurement": "Streptococcus mutans formation and adhesion", "setting": "Streptococcus mutans [12]", "result": "reduced Streptococcus mutans formation and adhesion"}, {"measurement": "effectiveness against Staphylococcus aureus", "setting": "Staphylococcus aureus", "result": "effectiveness"}, {"measurement": "effectiveness against Staphylococcus epidermidis", "setting": "[13]", "result": "effectiveness"}, {"measurement": "effectiveness against Escherichia coli", "setting": "Escherichia coli [14]", "result": "effectiveness"}, {"measurement": "leaching", "setting": "[15]", "result": "high leaching"}]}
